In patent US8580803B2, “Substituted pyrrolo-aminopyrimidine compounds” (ArQule, Inc., priority 2009, dated 2013):

Key:
[1] = biological target: AKT1 (Homo sapiens, UniProt P31749); assay: AKT Kinase Activity Assay (AlphaScreen, crosstide); conditions: Average of Akt1 biochemical assay
Experimental: AKT1 activity was assayed using the GSK3-derived biotinylated peptide substrate, crosstide (biotin-GRPRTSSFAEG), and AlphaScreen™ (Amplified Luminescent Proximity Homogeneous Assay) technology. AKT1 activation was achieved by the addition of the activating kinases PDK1 and MAPKAPK2, lipid vesicles, and ATP. The extent of peptide phosphorylation was determined using a phospho-AKT substrate antibody and acceptor beads conjugated to Protein A and donor beads conjugated to streptavidin that bind to the biotin on the peptide. Excitation of the donor beads converted ambient oxygen to excited singlet oxygen which, when in close proximity to acceptor beads, reacted with acceptor beads resulting in signal amplification.
Test inhibitors and controls (Abbott inhibitor, Merck pre-clinical inhibitor, and Merck clinical inhibitor) were prepared in 10% DMSO at 10-fold the desired final concentration, and added to each well of a reaction plate (Corning 96-well half-area solid white nonbinding surface plate) in a volume of 2.5 μL. […] After a 20 minute pre-incubation at room temperature, the kinase reaction was initiated by the addition of 5 μL of an activation mixture diluted in assay buffer containing biotinylated crosstide, PDK1, MAPKAPK2, DOPS/DOPC, PtdIns(3,4,5)P3, and ATP for final concentrations of 60 nM biotinylated crosstide, 0.1 nM PDK1, 0.7 nM MK2, 5.5 μM DOPS, 5.5 μM DOPC, 0.5 μM PtdIns(3,4,5)P3, and 50 μM ATP. The plates were incubated for 30 minutes at room temperature, and then stopped in the dark by the addition of 10 μL stop/detection mixture prepared in assay buffer containing EDTA, AlphaScreen™ Streptavidin Donor and Protein A Acceptor beads, and phospho-AKT substrate antibody for final concentrations of 10 mM EDTA, 500 ng/well of both AlphaScreen™ Streptavidin Donor beads and Protein A Acceptor beads, and phospho-AKT substrate antibody at a final dilution of 1:350. Assay plates were incubated for 90 minutes at room temperature in the dark, and the plates were read on a Perkin Elmer Envision Multilabel plate reader ([…]).

[2] = biological target: T1, ACK1 (110-489) (Homo sapiens, UniProt Q07912); assay: ACK1 Activity Assay (AlphaScreen, PYK2-derived peptide); format: biochemical
T1 construct: ACK1 110-489 (12.5 μl) were added to each well
T1 sequence (Q07912 110-489, species assumed): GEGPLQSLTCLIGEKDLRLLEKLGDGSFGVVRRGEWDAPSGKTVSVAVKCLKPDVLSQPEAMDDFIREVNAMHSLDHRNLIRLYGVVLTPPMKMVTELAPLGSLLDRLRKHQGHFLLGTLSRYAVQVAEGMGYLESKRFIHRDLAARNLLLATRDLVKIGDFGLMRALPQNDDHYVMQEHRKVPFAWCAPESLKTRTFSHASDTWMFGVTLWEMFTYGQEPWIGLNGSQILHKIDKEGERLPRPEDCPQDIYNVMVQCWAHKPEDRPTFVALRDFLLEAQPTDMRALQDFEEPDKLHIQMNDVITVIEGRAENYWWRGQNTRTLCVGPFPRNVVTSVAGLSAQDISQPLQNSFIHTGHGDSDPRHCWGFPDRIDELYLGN
Experimental: The extent of peptide phosphorylation was determined by using acceptor beads conjugated to phosphotyrosine antibody that recognizes the phosphorylated peptide and donor beads conjugated to streptavidin that binds to the biotin on the peptide. Excitation of the donor beads converted ambient oxygen to excited singlet oxygen which when in close proximity to acceptor beads, reacted with acceptor beads where the signal was amplified.
Test inhibitors and controls (N-(2,6-dimethylphenyl)-4-(2-ethoxyphenoxy)-2-[(4-piperazin-1-ylphenyl)amino]pyrimidine-5-carboxamide) were prepared in 10% DMSO at 10× the desired final concentration. […] After a 20-min incubation at room temperature, the kinase reaction was initiated by the addition of 10 μl of PYK2/ATP mixture. […] The plates were incubated for 60 min at room temperature. The reaction was stopped by the addition of 10 μl stop/detection mixture which contains EDTA (final concentration is 10 mM), AlphaScreen™ Streptavidin Donor beads (final concentration is 500 ng/well) and AlphaScreen™ Phospho-tyrosine (P-Tyr-100) Acceptor beads (final concentration is 500 ng/well) were diluted in assay buffer. This reagent addition step was performed in the dark because the AlphaScreen™ beads are light-sensitive. The plate was incubated for 60 min at room temperature in the dark and the plates were read on the Perkin Elmer Envision Multilabel plate reader ([…]).

AKT1, sequence (P31749 whole entry): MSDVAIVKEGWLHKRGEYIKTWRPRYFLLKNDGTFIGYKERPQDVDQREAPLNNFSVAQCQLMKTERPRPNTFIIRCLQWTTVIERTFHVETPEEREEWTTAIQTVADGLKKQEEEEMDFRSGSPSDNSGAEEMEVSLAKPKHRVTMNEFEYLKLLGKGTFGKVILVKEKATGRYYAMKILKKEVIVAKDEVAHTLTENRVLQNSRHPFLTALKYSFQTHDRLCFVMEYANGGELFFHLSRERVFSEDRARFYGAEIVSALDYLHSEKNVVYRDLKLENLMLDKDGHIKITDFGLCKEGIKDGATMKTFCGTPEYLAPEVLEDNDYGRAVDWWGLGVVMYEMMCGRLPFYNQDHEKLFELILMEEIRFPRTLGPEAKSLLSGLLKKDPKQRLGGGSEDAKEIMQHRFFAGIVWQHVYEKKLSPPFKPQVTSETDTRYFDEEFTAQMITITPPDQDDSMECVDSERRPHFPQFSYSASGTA

| Structure (SMILES) | IC50 [1] [nM] | IC50 [2] [nM] | melting point [°C] |
| --- | --- | --- | --- |
| CN(C)CCCNC(=O)c1cccc(Nc2ncnc3[nH]cc(C(=O)c4ccccc4)c23)c1 [3-[(5-benzoyl-7H-pyrrolo[2,3-d]pyrimidin-4-yl)amino]-N-[3-(dimethylamino)propyl]benzamide] | 674 | 486 |  |
| CC(=O)Nc1cccc(Nc2ncnc3c2c(C(=O)c2ccccc2)cn3C)c1 [drawing 273, N-(3-{[7-methyl-5-(phenylcarbonyl)-7H-pyrrolo[2,3-d]pyrimidin-4-yl]amino}phenyl)acetamide] | 2510 |  |  |
| CC(=O)Nc1cccc(Nc2ncnc3[nH]cc(C(=O)c4ccccc4)c23)c1 [N-{3-[(5-benzoyl-7H-pyrrolo[2,3-d]pyrimidin-4-yl)amino]phenyl}acetamide] | 2170 | 3870 |  |
| NC(=O)CCC(=O)Nc1cccc(Nc2ncnc3[nH]cc(C(=O)c4ccccc4)c23)c1 [N-(3-{[5-(phenylcarbonyl)-7H-pyrrolo[2,3-d]pyrimidin-4-yl]amino}phenyl)butanediamide] | 1210 | 876 |  |
| O=C(NCCCCN1CCCC1)c1cccc(Nc2ncnc3[nH]cc(C(=O)c4ccccc4)c23)c1 [3-[(5-benzoyl-7H-pyrrolo[2,3-d]pyrimidin-4-yl)amino]-N-(4-pyrrolidin-1-ylbutyl)benzamide] | 676 | 2170 |  |
| Cn1cc(CC(=O)Nc2cccc(Nc3ncnc4[nH]cc(C(=O)c5ccccc5)c34)c2)c2ccccc21 [2-(1-methyl-1H-indol-3-yl)-N-(3-{[5-(phenylcarbonyl)-7H-pyrrolo[2,3-d]pyrimidin-4-yl]amino}phenyl)acetamide] | 3090 |  |  |
| CNC(=O)c1cccc(Nc2ncnc3[nH]cc(C(=O)c4cccc(F)c4)c23)c1 |  |  | > 300 |
| CC(=O)Nc1ccc(Nc2ncnc3[nH]cc(C(=O)c4ccccc4)c23)cc1 |  |  | 263 to 264 |
| O=C(NCCCN1CCCCC1)c1cccc(Nc2ncnc3[nH]cc(C(=O)c4ccccc4)c23)c1 |  |  | > 300 |
| CN1CCC(NC(=O)c2cccc(Nc3ncnc4[nH]cc(C(=O)c5ccccc5)c34)c2)CC1 [3-[(5-benzoyl-7H-pyrrolo[2,3-d]pyrimidin-4-yl)amino]-N-(1-methylpiperidin-4-yl)benzamide] | 1440 | 592 |  |
| Nc1cccc(Nc2ncnc3[nH]cc(C(=O)c4ccccc4)c23)n1 |  |  | > 300 |
| CC(=O)Nc1cccc(Nc2ncnc3[nH]cc(C(=O)c4cccc(F)c4)c23)c1 |  |  | > 300 |
| O=C(NCC1CCCCC1)Nc1cccc(Nc2ncnc3[nH]cc(C(=O)c4ccccc4)c23)c1 |  |  | 180 to 182 |
| CC(=O)NCCC(=O)Nc1cccc(Nc2ncnc3[nH]cc(C(=O)c4ccccc4)c23)c1 [3-acetamido-N-(3-((5-benzoyl-7H-pyrrolo[2,3-d]pyrimidin-4-yl)amino)phenyl)propanamide] | 264 | 1340 |  |
| Nc1ccc(Nc2ncnc3[nH]cc(C(=O)c4ccccc4)c23)cc1 [{4-[(4-aminophenyl)amino]-7H-pyrrolo[2,3-d]pyrimidin-5-yl}(phenyl)methanone] | 2570 | 338 |  |
| O=C(c1ccccc1)c1c[nH]c2ncnc(Nc3cccc(CO)c3)c12 |  |  | 273 to 275 |
| CNC(=O)c1cccc(Nc2ncnc3[nH]cc(C(=O)c4ccc(Cl)cc4)c23)c1 |  |  | > 300 |
| CNC(=O)c1cccc(Nc2ncnc3[nH]cc(C(=O)c4ccccc4)c23)c1 [3-((5-benzoyl-7H-pyrrolo[2,3-d]pyrimidin-4-yl)amino)-N-methylbenzamide] | 5120 |  |  |
| CC(C)(C)NC(=O)Nc1cccc(Nc2ncnc3[nH]cc(C(=O)c4ccccc4)c23)c1 |  |  | 185 to 187 |
| Nc1cccc(Nc2ncnc3[nH]cc(C(=O)c4ccccc4)c23)c1 [drawing 248, {4-[(3-aminophenyl)amino]-7H-pyrrolo[2,3-d]pyrimidin-5-yl}(phenyl)methanone] | 1250 | 415 |  |
| O=C(c1ccccc1)c1c[nH]c2ncnc(Nc3cccc(CCO)c3)c12 |  |  | > 300 |

| Structure (SMILES) | IC50 [1] [nM] | IC50 [2] [nM] | melting point [°C] |
| --- | --- | --- | --- |
| CC(C)(C)OC(=O)Nc1cccc(Nc2ncnc3[nH]cc(C(=O)c4ccccc4)c23)c1 |  |  | 288 to 290 |
| CC(C)(C)OC(=O)Nc1ccc(Nc2ncnc3[nH]cc(C(=O)c4ccccc4)c23)cc1 |  |  | 274 to 280 |
| CC(=O)Nc1cccc(Nc2ncnc3[nH]cc(C(=O)c4ccccc4C)c23)c1 |  |  | > 300 |
| CN(C)CC(=O)Nc1cccc(Nc2ncnc3[nH]cc(C(=O)c4ccccc4)c23)c1 [N,N-dimethyl-N-(3-{[5-(phenylcarbonyl)-7H-pyrrolo[2,3-d]pyrimidin-4-yl]amino}phenyl)glycinamide] | 1120 | 672 |  |
| O=C(c1ccccc1)c1c[nH]c2ncnc(Nc3cccc(NC(=O)C4CCCC4)c3)c12 [N-(3-{[5-(phenylcarbonyl)-7H-pyrrolo[2,3-d]pyrimidin-4-yl]amino}phenyl) cyclopentanecarboxamide] | 7010 | 19000 |  |
| O=C(CCc1cccnc1)Nc1cccc(Nc2ncnc3[nH]cc(C(=O)c4ccccc4)c23)c1 [N-(3-{[5-(phenylcarbonyl)-7H-pyrrolo[2,3-d]pyrimidin-4-yl]amino}phenyl)-3-pyridin-3-ylpropanamide] | 288 | 1070 |  |
| CC(=O)Nc1cccc(Nc2ncnc3c2c(C(=O)c2ccccc2)cn3C)c1 |  |  | 140 to 142 |
| O=C(Nc1cccc(Nc2ncnc3[nH]cc(C(=O)c4ccccc4)c23)c1)c1ccccc1 |  |  | > 300 |
| CC(=O)NCC(=O)Nc1cc(Cl)cc(Nc2ncnc3[nH]cc(C(=O)c4ccccc4)c23)c1 |  |  | > 300 |
| O=C(O)c1cccc(Nc2ncnc3[nH]cc(C(=O)c4ccccc4)c23)c1 [3-[(5-benzo-7H-pyrrolo[2,3-d]pyrimidin-4-yl)amino]benzoic acid] | 3000 | 2190 |  |
| O=C(Nc1ccccc1)c1cccc(Nc2ncnc3[nH]cc(C(=O)c4ccccc4)c23)c1 |  |  | > 300 |
| CC(=O)NCC(=O)Nc1cccc(Nc2ncnc3[nH]cc(C(=O)c4ccccc4)c23)c1 [2-acetamido-N-(3-((5-benzoyl-7H-pyrrolo[2,3-d]pyrimidin-4-yl)amino)phenyl)acetamide] | 94.9 | 666 |  |
| CC(C)(C)OC(=O)NCc1cccc(Nc2ncnc3[nH]cc(C(=O)c4ccccc4)c23)c1 |  |  | 210 to 212 |
| O=C(Nc1cccc(Nc2ncnc3[nH]cc(C(=O)c4ccccc4)c23)c1)c1ccc(Cl)cc1 [4-chloro-N-(3-{[5-(phenylcarbonyl)-7H-pyrrolo[2,3-d]pyrimidin-4-yl]amino}phenyl)benzamide] | 5130 | 15700 |  |
| O=C(NCCCN1CCCC1)c1cccc(Nc2ncnc3[nH]cc(C(=O)c4ccccc4)c23)c1 [3-[(5-benzoyl-7H-pyrrolo[2,3-d]pyrimidin-4-yl)amino]-N-(3-pyrrolidin-1-ylpropyl)benzamide] | 899 | 1200 |  |
| O=C(Nc1ccccc1)c1cccc(Nc2ncnc3[nH]cc(C(=O)c4ccccc4)c23)c1 [drawing 239, 3-[(5-benzoyl-7H-pyrrolo[2,3-d]pyrimidin-4-yl)amino]-N-phenylbenzamide] | 1400 |  |  |
| NCc1cccc(Nc2ncnc3[nH]cc(C(=O)c4ccccc4)c23)c1 [drawing 278, (4-{[3-(aminomethyl)phenyl]amino}-7H-pyrrolo[2,3-d]pyrimidin-5-yl)(phenyl) methanone] | 186 |  |  |
| NCc1cccc(Nc2ncnc3[nH]cc(C(=O)c4ccccc4)c23)c1 |  |  | 210 to 212 |
| CCNC(=O)Nc1cccc(Nc2ncnc3[nH]cc(C(=O)c4ccccc4)c23)c1 |  |  | 183 to 185 |
| Nc1cc(Cl)cc(Nc2ncnc3[nH]cc(C(=O)c4ccccc4)c23)c1 |  |  | > 300 |
